Test results: patent publication US9815835B2, “Substituted polycyclic carbamolypyridone derivative” (priority 2009, dated 2017)

Tests used:
[1] = molecular target: cap-dependent endonuclease (RNP fraction containing PB1•PB2•PA complex) (Influenza A virus, UniProt P15659); test: biochemical; details: RNP from A/WSN/33 virus, capped Cy3/BHQ2 30mer RNA substrate, 60 minutes at room temperature; read-out: CEN IC50
influenza virus = test: microbe, parasite or virus in culture; format: cell-based, influenza virus (MDBK or MDCK cells); details: unidentified influenza virus, 72 h, read-out: CPE EC50, effective concentration to achieve 50% CPE inhibition, 3 days incubation, WST-8

Question: How did the IC50 [1] turn out when `CC(C)N1C(=O)c2c(O)c(=O)ccn2N(C2c3ccccc3CCc3ccccc32)C1CN(C)C` (centres unmarked) [Example 536] was run?
Answer: 71 nM

Question: And the EC50 (influenza virus)?
Answer: 27 nM

Question: What does the source list for `COC(=O)NCC1N(C(C)C)C(=O)c2c(O)c(=O)ccn2N1C1c2ccccc2CCc2ccccc21` (centres unmarked) [Example 544]?
Answer: IC50 [1]: 168 nM; EC50 (influenza virus): 51 nM

Question: With `CSCC(=O)NCC1N(C(C)C)C(=O)c2c(O)c(=O)ccn2N1C1c2ccccc2CCc2ccccc21` (centres unmarked) [Example 546] as the compound, how does the IC50 [1] read?
Answer: 202 nM

Question: What about the EC50 (influenza virus) of the same compound?
Answer: 124 nM

Question: For `CC(C)N1C(=O)c2c(O)c(=O)ccn2N(C2c3ccccc3CCc3ccccc32)C1CO` (centres unmarked) [Example 547], which IC50 [1] is on record?
Answer: 32 nM

Question: And the EC50 (influenza virus)?
Answer: 27 nM

Question: How did the IC50 [1] turn out when `CC(C)N1C(=O)c2c(O)c(=O)ccn2N(C2c3ccccc3CCc3ccccc32)C1CCO` (centres unmarked) [Example 548] was run?
Answer: 86 nM

Question: And the EC50 (influenza virus)?
Answer: 38 nM

Question: What does the source list for `NCC1N(CCO)C(=O)c2c(O)c(=O)ccn2N1C1c2ccccc2CCc2ccccc21` (centres unmarked) [Example 549]?
Answer: IC50 [1]: 76 nM; EC50 (influenza virus): 2100 nM

Question: Which IC50 [1] does the source give for `COCCC1N(CCO)C(=O)c2c(O)c(=O)ccn2N1C1c2ccccc2CCc2ccccc21` (centres unmarked) [Example 552] here?
Answer: 230 nM

Question: And the EC50 (influenza virus)?
Answer: 85 nM

Question: With `O=C1c2c(O)c(=O)ccn2N(C2c3ccccc3CCc3ccccc32)C(CO)N1CCO` (centres unmarked) [Example 554] as the compound, how does the IC50 [1] read?
Answer: 65 nM

Question: And the EC50 (influenza virus)?
Answer: 465 nM

Question: With `COC[C@H](C)N1C(=O)c2c(O)c(=O)ccn2N(C2c3ccccc3CCc3ccccc32)[C@@H]1CO` [Example 555] as the compound, how does the IC50 [1] read?
Answer: 23 nM

Question: And the EC50 (influenza virus)?
Answer: 12 nM

Question: Which IC50 [1] does the source give for `COCCN1C[C@H](C(c2ccccc2)c2ccccc2)n2cc(C)c(=O)c(O)c2C1=O` [Example 557] here?
Answer: 281 nM

Question: What about the EC50 (influenza virus) of the same compound?
Answer: 2470 nM

Question: What does the source list for `CN1C[C@H](C2c3ccccc3CSc3ccccc32)n2cc(C(=O)O)c(=O)c(O)c2C1=O` (some centres unmarked) [Example 560]?
Answer: IC50 [1]: 27 nM; EC50 (influenza virus): 173 nM

Question: How did the IC50 [1] turn out when `CC(C)N1C[C@H](C2c3ccccc3CSc3ccccc32)n2ccc(=O)c(O)c2C1=O` (some centres unmarked) [Example 561] was run?
Answer: 73 nM

Question: And the EC50 (influenza virus)?
Answer: 8 nM

Question: How did the IC50 [1] turn out when `CN1C[C@H](C2c3ccccc3CSc3ccccc32)n2ccc(=O)c(O)c2C1=O` (some centres unmarked) [Example 562] was run?
Answer: 22 nM

Question: What about the EC50 (influenza virus) of the same compound?
Answer: 62 nM

Question: Which results are given for `O=C1NCC(C2c3ccccc3CCc3ccccc32)n2ccc(=O)c(O)c21` (centres unmarked) [Example 563]?
Answer: IC50 [1]: 49 nM; EC50 (influenza virus): 464 nM

Question: Which IC50 [1] does the source give for `CN1CC(C2c3ccccc3CCc3ccccc32)n2ccc(=O)c(O)c2C1=O` (centres unmarked) [Example 564] here?
Answer: 88 nM

Question: What about the EC50 (influenza virus) of the same compound?
Answer: 136 nM

Question: With `CN(C)CCN1CC(C2c3ccccc3CCc3ccccc32)n2ccc(=O)c(O)c2C1=O` (centres unmarked) [Example 565] as the compound, how does the IC50 [1] read?
Answer: 154 nM

Question: What about the EC50 (influenza virus) of the same compound?
Answer: 726 nM

Question: For `O=C1c2c(O)c(=O)ccn2C(C2c3ccccc3CCc3ccccc32)CN1c1ccccn1` (centres unmarked) [Example 569], which IC50 [1] is on record?
Answer: 138 nM

Question: And the EC50 (influenza virus)?
Answer: 1010 nM

Question: Which results are given for `O=C1c2c(O)c(=O)ccn2C(C2c3ccccc3CCc3ccccc32)CN1c1cccnc1` (centres unmarked) [Example 570]?
Answer: IC50 [1]: 81 nM; EC50 (influenza virus): 2050 nM

Question: For `NN1CC(C2c3ccccc3CCc3ccccc32)n2ccc(=O)c(O)c2C1=O` (centres unmarked) [Example 571], which IC50 [1] is on record?
Answer: 65 nM

Question: And the EC50 (influenza virus)?
Answer: 320 nM

Question: What does the source list for `N#CCN1CC(C2c3ccccc3CCc3ccccc32)n2ccc(=O)c(O)c2C1=O` (centres unmarked) [Example 573]?
Answer: IC50 [1]: 55 nM; EC50 (influenza virus): 158 nM

Question: With `N#CCN1C[C@H](C(c2ccccc2)c2ccccc2)n2ccc(=O)c(O)c2C1=O` [Example 574] as the compound, how does the IC50 [1] read?
Answer: 165 nM

Question: What about the EC50 (influenza virus) of the same compound?
Answer: 442 nM

Question: `CC(C#N)N1CC(C2c3ccccc3CCc3ccccc32)n2ccc(=O)c(O)c2C1=O` (centres unmarked) [Example 575] was tested. Which IC50 [1] did it give?
Answer: 58 nM

Question: What about the EC50 (influenza virus) of the same compound?
Answer: 87 nM

Question: For `CC(C)N1C[C@H](C2c3ccccc3CCc3ccccc32)n2ccc(=O)c(O)c2C1=O` [Example 576], which IC50 [1] is on record?
Answer: 63 nM

Question: And the EC50 (influenza virus)?
Answer: 27 nM

Question: How did the IC50 [1] turn out when `COCCN1CN(C(c2ccccc2)c2ccccc2)n2c(CC#N)cc(=O)c(O)c2C1=O` [Example 577] was run?
Answer: 233 nM

Question: What about the EC50 (influenza virus) of the same compound?
Answer: 337 nM

Question: How did the IC50 [1] turn out when `CC(C)N1CN(C(c2ccccc2)c2ccccc2)n2c(N)cc(=O)c(O)c2C1=O` [Example 581] was run?
Answer: 83 nM

Question: And the EC50 (influenza virus)?
Answer: 480 nM
